Data from patent publication USRE48687E1, “Pyridinylaminopyrimidine derivatives, preparation process and use thereof” (Shanghai Allist Pharmaceuticals Co., Ltd., priority 2014, dated 2021).
pIC50: −log10 of the molar value.

Columns and labels:
Type in all cases: cell-based
Details in all cases: SRB staining
[1] = test system: human lung cancer cell (H1975, EGFR L858R/T790M resistant mutation); assay: Proliferation inhibition (SRB) on human lung cancer cell H1975
Source text: (§1) The pharmacodynamic action of the compound of the present invention in terms of inhibiting the proliferation of cancer cells may be assayed by conventional methods. […] Inhibition ratio (%)=[(blank control OD−inhibitor OD)/blank control OD]×100%
(§2) Blank control OD: the OD value of the well of normally growed cells without the action of a drug.
(§3) Inhibitor OD: the OD value of the well of cells with the action of the added compounds to be screened.
(§4) The median inhibitory concentration (IC50) value is obtained by the software GraphPad Prism 5.0 by the 4-parameter logistic curve fit calculation. Each experiment is repeated three times, and the average IC50 value for three experiments is used as the final index for the inhibitory ability.
(§5) Cells in the logarithmic phase were inoculated to 96-well culture plates (cell density: 5000/well, cell suspension: 180 μl/well), and cultured at 37° C. under 5% CO2 for 24 hours. After the culturing, the cells adhered to the well walls. Each of compounds was dissolved in DMSO in advance to formulate a […] stock solution. Upon testing, the stock solution was diluted with complete medium to 10 times the target concentration in another 96-cell plate. And then the compound was added at 20 μl/cell in the 96-well plate in which the cells were inoculated, i.e. the target concentration could be reached. The well for each concentration was triplicated, and the blank control was established. Cells continued to be cultured at 37° C. under 5% CO2 for 72 hours. After the termination of culturing, 50 μl pre-cooled (4° C.) 50% trichloroacetic acid, i.e., TCA was added to each of wells (final concentration=10%), and was placed at 4° C. for 1 hour to fix the cells. The resulting matter was washed with purified water for at least 5 times, and dried naturally in air or at 60° C. in an oven. 4 mg/ml Sulforhodamine B (SRB) solution prepared by 1% glacial acetic acid/purified water was added at 100 μl/well to each well so as to stain for 1 hour at room temperature. The supernatant was discarded. The residue was washed with 1% acetic acid for at least 5 times to remove the non-specifically binding, and dried for use. To each well was added 150 μl of 10 mM Tris-HCl solution for dissolving the contents therein.

[2] = test system: human lung cancer cell (HCC827, EGFR Exon 19 deletion activating mutation); assay: Proliferation inhibition (SRB) on human lung cancer cell HCC827
Source text: as §1, §2, §3, §4, §5

[3] = test system: human skin cancer cell (A431, wild-type EGFR); assay: Proliferation inhibition (SRB) on human skin cancer cell A431
Source text: as §1, §2, §3, §4, §5

Compound	pIC50 ([1]; Homo sapiens, NCI-H1975, 72 h)	pIC50 ([2]; Homo sapiens, HCC827, 72 h)	pIC50 ([3]; Homo sapiens, A-431, 72 h)	pIC50 ([1]; 72 hours, methanesulfonate)	pIC50 ([2]; 72 hours, methanesulfonate)	pIC50 ([3]; 72 hours, methanesulfonate)	pIC50 ([2]; Homo sapiens, 72 hours)	pIC50 ([3]; Homo sapiens, A-431, 72 hours)
C=CC(=O)Nc1cc(Nc2ncc(Cl)c(-c3cnc4c(ccn4C)c3)n2)c(OC(C)C)nc1N(C)CCN(C)C [Example 20 compound, N-{2-{[2-(dimethylamino)ethyl](methyl)amino}-6-isopropyloxy-5-{[5-chloro-4-(1-methyl-1H-pyrrolo[2,3-b]pyridin-5-yl)pyrimidin-2-yl]amino}pyridin-3-yl}acrylamide]	7.37	8.05	6.10	–	–	–	–	–
C=CC(=O)Nc1cc(Nc2ncc(Cl)c(-c3cnc(N)nc3)n2)c(OC(C)C)nc1N(C)CCN(C)C [Example 23 compound, N-{2-{[2-(dimethylamino)ethyl](methyl)amino}-6-isopropyloxy-5-{[5-chloro-2′-amino-(4,5′-bipyrimidine)-2-yl]amino}pyridin-3-yl}acrylamide]	7.51	8.51	5.94	–	–	–	–	–
C=CC(=O)Nc1cc(Nc2ncc(F)c(-c3cn(C)c4cc(F)c(F)cc34)n2)c(OC(C)C)nc1N(C)CCN(C)C [Example 12 compound, N-{2-{[2-(dimethylamino)ethyl](methyl)amino}-6-isopropyloxy-5-{5-fluoro-[4-(1-methyl-5,6-difluoro-1H-indol-3-yl)pyrimidin-2-yl]amino}pyridin-3-yl}acrylamide]	8.05	9.02	6.47	–	–	–	–	–
C=CC(=O)Nc1cc(Nc2nccc(-c3cn(C)c4ccc(F)cc34)n2)c(OC(C)C)nc1N(C)CCN(C)C [Example 5 compound, N-{2-{[2-(dimethylamino)ethyl](methyl)amino}-6-isopropyloxy-5-{[4-(1-methyl-5-fluoro-1H-indol-3-yl)pyrimidin-2-yl]amino}pyridin-3-yl}acrylamide]	8.32	8.59	6.74	–	–	–	–	–
C=CC(=O)Nc1cc(Nc2ncc(Cl)c(-c3cn(C)c4cc(F)ccc34)n2)c(OC(C)C)nc1N(C)CCN(C)C [Example 7 compound, N-{2-{[2-(dimethylamino)ethyl](methyl)amino}-6-isopropyloxy-5-{5-chloro-[4-(1-methyl-6-fluoro-1H-indol-3-yl)pyrimidin-2-yl]amino}pyridin-3-yl}acrylamide]	7.78	8.85	6.51	–	–	–	–	–
C=CC(=O)Nc1cc(Nc2ncc(Cl)c(-c3cn(C)c4cc(F)c(F)cc34)n2)c(OC(C)C)nc1N(C)CCN(C)C [Example 8 compound, N-{2-{[2-(dimethylamino)ethyl](methyl)amino}-6-isopropyloxy-5-{5-chloro-[4-(1-methyl-5,6-difluoro-1H-indol-3-yl)pyrimidin-2-yl]amino}pyridin-3-yl}acrylamide]	8.08	8.22	6.43	–	–	–	–	–
C=CC(=O)Nc1cc(Nc2ncc(F)c(-c3cn(C)c4ccc(F)cc34)n2)c(OC(C)C)nc1N(C)CCN(C)C [Example 10 compound, N-{2-{[2-(dimethylamino)ethyl](methyl)amino}-6-isopropyloxy-5-{5-fluoro-[4-(1-methyl-5-fluoro-1H-indol-3-yl)pyrimidin-2-yl]amino}pyridin-3-yl}acrylamide]	8.27	8.58	6.68	–	–	–	–	–
C=CC(=O)Nc1cc(Nc2ncc(Cl)c(-c3cn(C)c4ccccc34)n2)c(OCC(F)(F)F)nc1N(C)CCN(C)C [Example 4 compound, N-{2-{[2-(dimethylamino)ethyl](methyl)amino}-6-(2,2,2-trifluoroethoxyl)-5-{5-chloro-[4-(1-methyl-1H-indol-3-yl)pyrimidin-2-yl]amino}pyridin-3-yl}acrylamide]	8.21	8.72	6.79	–	–	–	–	–
C=CC(=O)Nc1cc(Nc2nccc(-c3cn(C)c4cc(F)c(F)cc34)n2)c(OC(C)C)nc1N(C)CCN(C)C [Example 18 compound, N-{2-{[2-(dimethylamino)ethyl](methyl)amino}-6-isopropyloxy-5-{[4-(1-methyl-5,6-difluoro-1H-indol-3-yl)pyrimidin-2-yl]amino}pyridin-3-yl}acrylamide methanesulfonate]	–	–	–	8.29	8.65	6.47	–	–
C=CC(=O)Nc1cc(Nc2nccc(-c3cn(C)c4cc(F)c(F)cc34)n2)c(OC(C)C)nc1N(C)CCN(C)C [Example 6 compound, N-{2-{[2-(dimethylamino)ethyl](methyl)amino}-6-isopropyloxy-5-{[4-(1-methyl-5,6-difluoro-1H-indol-3-yl)pyrimidin-2-yl]amino}pyridin-3-yl}acrylamide]	8.28	8.63	6.47	–	–	–	–	–
C=CC(=O)Nc1cc(Nc2nccc(-c3cn(C)c4ccccc34)n2)c(OC)cc1N(C)CCN(C)C [AZD9291, reference compound]	–	–	–	–	–	–	8.42	7.15
C=CC(=O)Nc1cc(Nc2ncc(Cl)c(-c3cnn(C)c3)n2)c(OC(C)C)nc1N(C)CCN(C)C [Example 21 compound, N-{2-{[2-(dimethylamino)ethyl](methyl)amino}-6-isopropyloxy-5-{[5-chloro-4-(1-methyl-1H-pyrazol-4-yl)pyrimidin-2-yl]amino}pyridin-3-yl}acrylamide]	7.73	6.85	6.43	–	–	–	–	–
C=CC(=O)Nc1cc(Nc2nccc(-c3cn(C)c4ccc(F)cc34)n2)c(OCC(F)(F)F)nc1N(C)CCN(C)C [Example 15 compound, N-{2-{[2-(dimethylamino)ethyl](methyl)amino}-6-(2,2,2-trifluoroethoxyl)-5-{[4-(1-methyl-5-fluoro-1H-indol-3-yl)pyrimidin-2-yl]amino}pyridin-3-yl}acrylamide]	8.20	9.16	6.47	–	–	–	–	–
C=CC(=O)Nc1cc(Nc2ncc(Cl)c(-c3cn(C)c4ccc(F)cc34)n2)c(OC(C)C)nc1N(C)CCN(C)C [Example 9 compound, N-{2-{[2-(dimethylamino)ethyl](methyl)amino}-6-isopropyloxy-5-{5-chloro-[4-(1-methyl-5-fluoro-1H-indol-3-yl)pyrimidin-2-yl]amino}pyridin-3-yl}acrylamide]	7.90	8.93	6.16	–	–	–	–	–
C=CC(=O)Nc1cc(Nc2ncc(F)c(-c3cn(C)c4ccccc34)n2)c(OCC(F)(F)F)nc1N(C)CCN(C)C [Example 14 compound, N-{2-{[2-(dimethylamino)ethyl](methyl)amino}-6-(2,2,2-trifluoroethoxyl)-5-{5-fluoro-[4-(1-methyl-1H-indol-3-yl)pyrimidin-2-yl]amino}pyridin-3-yl}acrylamide]	8.29	9.11	6.62	–	–	–	–	–
C=CC(=O)Nc1cc(Nc2ncc(Cl)c(-c3cn(C)c4ccccc34)n2)c(OC(C)C)nc1N(C)CCN(C)C [Example 16 compound, N-{2-{[2-(dimethylamino)ethyl](methyl)amino}-6-isopropyloxy-5-{5-chloro-[4-(1-methyl-1H-indol-3-yl)pyrimidin-2-yl]amino}pyridin-3-yl}acrylamide methanesulfonate]	8.27	8.84	6.56	–	–	–	–	–
C=CC(=O)Nc1cc(Nc2nccc(-c3cn(C)c4cc(F)ccc34)n2)c(OC(C)C)nc1N(C)CCN(C)C [Example 13 compound, N-{2-{[2-(dimethylamino)ethyl](methyl)amino}-6-isopropyloxy-5-{[4-(1-methyl-6-fluoro-1H-indol-3-yl)pyrimidin-2-yl]amino}pyridin-3-yl}acrylamide]	8.27	8.58	6.68	–	–	–	–	–
C=CC(=O)Nc1cc(Nc2nccc(-c3cn(C)c4ccccc34)n2)c(OCC(F)(F)F)nc1N(C)CCN(C)C [Example 3 compound, N-{2-{[2-(dimethylamino)ethyl](methyl)amino}-6-(2,2,2-trifluoroethoxyl)-5-{[4-(1-methyl-1H-indol-3-yl)pyrimidin-2-yl]amino}pyridin-3-yl}acrylamide]	8.64	8.87	6.65	–	–	–	–	–
C=CC(=O)Nc1cc(Nc2ncc(Cl)c(-c3cn(C)c4cc(F)c(F)cc34)n2)c(OC(C)C)nc1N(C)CCN(C)C [Example 17 compound, N-{2-{[2-(dimethylamino)ethyl](methyl)amino}-6-isopropyloxy-5-{5-chloro-[4-(1-methyl-5,6-difluoro-1H-indol-3-yl)pyrimidin-2-yl]amino}pyridin-3-yl}acrylamide methanesulfonate]	–	–	–	8.12	8.25	–	–	–
